Test results taken from publication PMC6664820, “Novel natural and synthetic inhibitors of solute carriers SGLT1 and SGLT2” (Pharmacology Research & Perspectives, 2019).
Counter-ions that a name gives are not always drawn. Like-named read-outs stand apart in the source and are kept apart here.

Key:
CHO‐hSGLT1/2 cells = test: Cytotoxicity assay (ToxiLight, adenylate kinase leakage into CHO‐SGLT1/2 inhibition assay media); parameters: CYTOTOXICITY / CY[…], mean / CYTOTOXICITY (% of vehicle control) Mean / CYTOTOXICITY, mean / CY[…] (% of vehicle control) Mean: dose or concentration left out as unconfirmed; settings: for CYTOTOXICITY, mean: ToxiLight, adenylate kinase leakage;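 for all read-outs here: bioluminescent read-out of adenylate kinase released from lysed cells into the medium, given relative to DMSO vehicle control defined as 0%, higher meaning more cytolysis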
Method: The cytotoxicity of representative SGLT1/2 inhibitors and compounds from the different chemical clusters was tested. Cytotoxicity was determined using the ToxiLight bioassay kit according to the supplier's instructions. This nondestructive assay measures leakage of the enzyme adenylate kinase (AK) from damaged cells into the CHO‐SGLT1/2 inhibition assay media, ie the degree of cytolysis. […] Next, bioluminescence was measured using a FlexStation 3 Multi‐Mode Microplate Reader (Molecular Devices) by 1 second integrated reading. Cytotoxicity was expressed as the percentage of bioluminescence of the DMSO vehicle control which was set at 0%. If applicable, statistical outliers were determined using Grubbs’ test (alpha = 0.05) and excluded for calculation of the mean ± SD.

SGLT1 = target: T1, SGLT1 (Homo sapiens, UniProt P13866); test: SGLT1 inhibition assay for validation of screening hits and similar compounds (1‐NBD‐glucose uptake, CHO‐hSGLT1 cells); assay type: cell-based; parameters: activity: dose or concentration left out as unconfirmed; settings: mean; for remaining activity at 5 µM / remaining activity at 50 µM: 0.5 h, concentration not given, read-out: NORMALIZED SGLT1 ACTIVITY (%); for activity: compound, normalized 1-NBD-glucose uptake, CHO-hSGLT1 cells
T1 sequence (P13866 1-664): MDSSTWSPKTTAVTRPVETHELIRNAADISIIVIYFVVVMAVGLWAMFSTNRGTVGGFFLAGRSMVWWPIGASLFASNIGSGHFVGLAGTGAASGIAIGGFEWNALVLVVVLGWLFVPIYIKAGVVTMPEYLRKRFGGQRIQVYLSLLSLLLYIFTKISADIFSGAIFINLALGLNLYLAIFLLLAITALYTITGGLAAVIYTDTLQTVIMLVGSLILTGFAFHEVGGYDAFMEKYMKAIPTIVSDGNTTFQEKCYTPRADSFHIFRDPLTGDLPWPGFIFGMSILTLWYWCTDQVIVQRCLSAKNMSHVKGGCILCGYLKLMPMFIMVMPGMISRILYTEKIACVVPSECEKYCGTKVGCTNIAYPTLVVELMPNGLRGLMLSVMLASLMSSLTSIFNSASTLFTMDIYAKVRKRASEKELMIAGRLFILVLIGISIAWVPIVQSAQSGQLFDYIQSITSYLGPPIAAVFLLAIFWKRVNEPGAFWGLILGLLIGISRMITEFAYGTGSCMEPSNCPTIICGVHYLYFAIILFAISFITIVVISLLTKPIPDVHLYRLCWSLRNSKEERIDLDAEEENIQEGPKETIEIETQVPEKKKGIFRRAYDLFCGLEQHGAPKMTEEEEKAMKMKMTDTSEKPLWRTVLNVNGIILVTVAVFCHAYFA

hSGLT2 = target: T2, hSGLT2 (Homo sapiens, UniProt P31639); test: SGLT2 inhibition assay for validation of screening hits and similar compounds (1‐NBD‐glucose uptake, CHO‐hSGLT2 cells); assay type: cell-based; parameters: activity: dose or concentration left out as unconfirmed; settings: for remaining activity at 5 µM / remaining activity at 50 µM: 0.5 h, concentration not given, read-out: NORMALIZED SGLT2 ACTIVITY (%); for remaining activity at 5 µM / remaining activity at 50 µM / activity: mean; for SGLT2/SGLT1 ACTIVITY RATIO, first concentration / SGLT2/SGLT1 ACTIVITY RATIO, second concentration: ratio of normalized SGLT2 to SGLT1 activity; for activity: compound, normalized 1-NBD-glucose uptake, CHO-hSGLT2 cells
T2 sequence (P31639 1-672): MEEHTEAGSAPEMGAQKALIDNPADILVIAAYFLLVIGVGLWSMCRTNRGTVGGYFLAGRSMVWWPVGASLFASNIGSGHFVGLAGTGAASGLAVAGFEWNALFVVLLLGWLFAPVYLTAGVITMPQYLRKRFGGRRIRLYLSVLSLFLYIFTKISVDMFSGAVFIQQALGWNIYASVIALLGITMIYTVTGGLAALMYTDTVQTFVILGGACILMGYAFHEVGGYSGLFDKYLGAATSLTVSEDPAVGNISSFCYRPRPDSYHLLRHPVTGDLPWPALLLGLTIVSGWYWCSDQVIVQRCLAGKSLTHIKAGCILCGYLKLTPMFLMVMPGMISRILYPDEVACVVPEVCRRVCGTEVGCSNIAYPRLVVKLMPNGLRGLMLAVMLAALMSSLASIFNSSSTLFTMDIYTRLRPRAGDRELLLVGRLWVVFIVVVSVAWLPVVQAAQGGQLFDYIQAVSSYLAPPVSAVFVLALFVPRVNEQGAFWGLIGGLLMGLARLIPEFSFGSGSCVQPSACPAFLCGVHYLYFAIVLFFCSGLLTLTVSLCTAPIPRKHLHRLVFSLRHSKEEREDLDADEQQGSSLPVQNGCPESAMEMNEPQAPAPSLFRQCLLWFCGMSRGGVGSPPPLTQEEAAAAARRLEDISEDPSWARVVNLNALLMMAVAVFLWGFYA

[1] = ratio of normalized SGLT2 to SGLT1 activity at 5 uM

Structure (SMILES)	remaining activity at 5 µM (SGLT1) [%]	remaining activity at 50 µM (SGLT1) [%]	remaining activity at 5 µM (hSGLT2) [%]	remaining activity at 50 µM (hSGLT2) [%]	activity (hSGLT2) [%]	SGLT2/SGLT1 ACTIVITY RATIO 5 uM Mean (hSGLT2; [1])	other results
Cc1cccc(C)c1NC(=O)C1CCCCN1C (racemic) [(±)-Mepivacaine HCl]	98	89	89	82			CYTOTOXICITY (CHO‐hSGLT1/2 cells; mean): 3
OC(CCN1CCCCC1)(c1ccccc1)C1CCCCC1 (racemic) [(±)-Trihexyphenidyl HCl]							CY[…] (% of vehicle control) Mean (CHO‐hSGLT1/2 cells; mean): -12 % of vehicle control; SGLT2/SGLT1 ACTIVITY RATIO 5 uM Mean (hSGLT2): 1.0; SGLT2/SGLT1 ACTIVITY RATIO 50 mM Mean (hSGLT2): 1.3
CC(=O)O[C@H]1C[C@@H](OC(C)=O)[C@@]2(C)CO[C@H]3[C@@H](O)[C@@]4(C)C5=CC[C@@H](c6ccoc6)[C@]5(C)CC[C@@H]4[C@]1(C)[C@@H]32 [1,3-Diacetylvilasinin]							CYTOTOXICITY, mean (CHO‐hSGLT1/2 cells): -18; SGLT2/SGLT1 ACTIVITY RATIO, first concentration (hSGLT2): 1.1; SGLT2/SGLT1 ACTIVITY RATIO, second concentration (hSGLT2): 1.1
Oc1c(Br)cc(Cl)c2cccnc12 [7-Bromo-5-chloro-8-hydroxyquinoline]	103	45	92	78			CYTOTOXICITY (CHO‐hSGLT1/2 cells; mean): 14
CC1(C)C(=O)C=C[C@@]2(C)C1=C(O)C(=O)[C@]1(C)[C@@H]2[C@@H](O)C[C@@]2(C)[C@H](c3ccoc3)C[C@H]3O[C@]321 [11beta-Hydroxycedrelone]							CYTOTOXICITY, mean (CHO‐hSGLT1/2 cells): -13; SGLT2/SGLT1 ACTIVITY RATIO, first concentration (hSGLT2): 1.7; SGLT2/SGLT1 ACTIVITY RATIO, second concentration (hSGLT2): 1.2
C/C=C(\C)C(=O)O[C@H]1[C@@H](OC(C)=O)c2c(ccc3ccc(=O)oc23)OC1(C)C [(+)-Praeruptorin A]					95	1.0	CYTOTOXICITY (% of vehicle control) Mean (CHO‐hSGLT1/2 cells; mean): -5.48 % of vehicle control; activity (SGLT1): 94%
CC=C(C)C(=O)O[C@H]1c2c(ccc3ccc(=O)oc23)OC(C)(C)[C@H]1OC(C)=O [(+)-Pteryxin]					81	1.1	CYTOTOXICITY (% of vehicle control) Mean (CHO‐hSGLT1/2 cells; mean): 2 % of vehicle control; activity (SGLT1): 75%
Oc1ccc(/C=C/c2cc(O)cc3c2[C@H](c2cc(O)cc(O)c2)[C@@H](c2ccc(O)cc2)O3)cc1 [(+)-e-Viniferin]	97	56	102	79			CYTOTOXICITY (CHO‐hSGLT1/2 cells; mean): 6
CN1[C@@H](CC(=O)c2ccccc2)CCC[C@H]1C[C@H](O)c1ccccc1 [(-)-Lobeline HCl]	98	57	97	63			CY[…] 50 mM (CHO‐hSGLT1/2 cells; mean, at 50 mM (so in the source)): -18
Oc1ccc(/C=C/c2cc(O)cc3c2[C@@H](c2cc(O)cc(O)c2)[C@H](c2ccc(O)cc2)O3)cc1 [(-)-e-Viniferin]	106	117	107	65			CYTOTOXICITY (CHO‐hSGLT1/2 cells; mean): -9
CCN(CC)CCOC(=O)C(c1ccccc1)c1ccccc1 [Adiphenine HCl]					113	1.0	CY[…] (% of vehicle control) Mean (CHO‐hSGLT1/2 cells; mean): -16 % of vehicle control; activity (SGLT1): 108%
O=C1c2cc(CO)cc(O)c2C(=O)c2c(O[C@@H]3O[C@H](CO)[C@@H](O)[C@H](O)[C@H]3O)cccc21 [Aloe-emodin-8-O-b-D-glucopyranoside]					100	1.0	CYTOTOXICITY (% of vehicle control) Mean (CHO‐hSGLT1/2 cells; mean): -3.25 % of vehicle control; activity (SGLT1): 100%
CN1[C@@H]2CC[C@H]1C[C@@H](OC(c1ccccc1)c1ccccc1)C2 [Benztropine mesylate]					73		CY[…] (% of vehicle control) Mean (CHO‐hSGLT1/2 cells; mean): -10 % of vehicle control
CC(C)COCC(CN(Cc1ccccc1)c1ccccc1)N1CCCC1 (stereo not shown) [Bepridil HCl]					65	1.1	CY[…] (% of vehicle control) Mean (CHO‐hSGLT1/2 cells; mean): 3.67 % of vehicle control
